Values quoted from earlier work in US20030229057A1, “Continuous sulfatase inhibiting progestogen hormone replacement therapy” (priority 2002, published 2003).

Settings: humans

In the case of C#C[C@]1(OC(C)=O)CC[C@H]2[C@@H]3CCC4=CC(=NO)CC[C@@H]4[C@H]3CC[C@@]21CC (mixture of isomers) [norgestimate], the “norgestimate being converted to norelgestromin in vivo” value is listed as at least 80%.
